According to PMC9861803, “A New ABCB1 Inhibitor Enhances the Anticancer Effect of Doxorubicin in Both In Vitro and In Vivo Models of NSCLC” (International Journal of Molecular Sciences, 2023):

Assays:
ABCA1 = ABCA1 (Mus musculus, UniProt P41233); test: radiolabelled cholesterol efflux to apoA-I from murine peritoneal macrophages; assay type: cell-based
[1] = target: T1, breast cancer resistant protein (BCRP, ABCG2) (Homo sapiens, UniProt Q9UNQ0); test: Hoechst […] accumulation assay in H460 cells; assay type: cell-based
T1 sequence (Q9UNQ0 1-655): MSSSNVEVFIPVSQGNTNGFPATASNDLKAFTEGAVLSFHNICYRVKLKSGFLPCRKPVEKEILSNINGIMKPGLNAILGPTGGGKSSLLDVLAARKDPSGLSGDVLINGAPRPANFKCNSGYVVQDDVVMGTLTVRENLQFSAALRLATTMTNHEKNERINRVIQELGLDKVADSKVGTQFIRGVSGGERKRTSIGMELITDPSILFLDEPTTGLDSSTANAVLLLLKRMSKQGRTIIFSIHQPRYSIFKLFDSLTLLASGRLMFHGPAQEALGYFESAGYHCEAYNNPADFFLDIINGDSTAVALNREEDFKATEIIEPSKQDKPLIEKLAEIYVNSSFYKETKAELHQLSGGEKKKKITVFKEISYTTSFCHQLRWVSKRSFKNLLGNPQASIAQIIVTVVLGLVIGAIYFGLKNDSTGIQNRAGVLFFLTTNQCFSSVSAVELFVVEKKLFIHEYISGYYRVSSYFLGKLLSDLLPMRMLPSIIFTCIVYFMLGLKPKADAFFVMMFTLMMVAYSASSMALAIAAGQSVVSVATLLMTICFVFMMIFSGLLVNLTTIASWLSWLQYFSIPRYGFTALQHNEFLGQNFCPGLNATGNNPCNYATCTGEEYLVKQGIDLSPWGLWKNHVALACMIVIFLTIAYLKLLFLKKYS

Sequence of ABCA1 (P41233 whole entry): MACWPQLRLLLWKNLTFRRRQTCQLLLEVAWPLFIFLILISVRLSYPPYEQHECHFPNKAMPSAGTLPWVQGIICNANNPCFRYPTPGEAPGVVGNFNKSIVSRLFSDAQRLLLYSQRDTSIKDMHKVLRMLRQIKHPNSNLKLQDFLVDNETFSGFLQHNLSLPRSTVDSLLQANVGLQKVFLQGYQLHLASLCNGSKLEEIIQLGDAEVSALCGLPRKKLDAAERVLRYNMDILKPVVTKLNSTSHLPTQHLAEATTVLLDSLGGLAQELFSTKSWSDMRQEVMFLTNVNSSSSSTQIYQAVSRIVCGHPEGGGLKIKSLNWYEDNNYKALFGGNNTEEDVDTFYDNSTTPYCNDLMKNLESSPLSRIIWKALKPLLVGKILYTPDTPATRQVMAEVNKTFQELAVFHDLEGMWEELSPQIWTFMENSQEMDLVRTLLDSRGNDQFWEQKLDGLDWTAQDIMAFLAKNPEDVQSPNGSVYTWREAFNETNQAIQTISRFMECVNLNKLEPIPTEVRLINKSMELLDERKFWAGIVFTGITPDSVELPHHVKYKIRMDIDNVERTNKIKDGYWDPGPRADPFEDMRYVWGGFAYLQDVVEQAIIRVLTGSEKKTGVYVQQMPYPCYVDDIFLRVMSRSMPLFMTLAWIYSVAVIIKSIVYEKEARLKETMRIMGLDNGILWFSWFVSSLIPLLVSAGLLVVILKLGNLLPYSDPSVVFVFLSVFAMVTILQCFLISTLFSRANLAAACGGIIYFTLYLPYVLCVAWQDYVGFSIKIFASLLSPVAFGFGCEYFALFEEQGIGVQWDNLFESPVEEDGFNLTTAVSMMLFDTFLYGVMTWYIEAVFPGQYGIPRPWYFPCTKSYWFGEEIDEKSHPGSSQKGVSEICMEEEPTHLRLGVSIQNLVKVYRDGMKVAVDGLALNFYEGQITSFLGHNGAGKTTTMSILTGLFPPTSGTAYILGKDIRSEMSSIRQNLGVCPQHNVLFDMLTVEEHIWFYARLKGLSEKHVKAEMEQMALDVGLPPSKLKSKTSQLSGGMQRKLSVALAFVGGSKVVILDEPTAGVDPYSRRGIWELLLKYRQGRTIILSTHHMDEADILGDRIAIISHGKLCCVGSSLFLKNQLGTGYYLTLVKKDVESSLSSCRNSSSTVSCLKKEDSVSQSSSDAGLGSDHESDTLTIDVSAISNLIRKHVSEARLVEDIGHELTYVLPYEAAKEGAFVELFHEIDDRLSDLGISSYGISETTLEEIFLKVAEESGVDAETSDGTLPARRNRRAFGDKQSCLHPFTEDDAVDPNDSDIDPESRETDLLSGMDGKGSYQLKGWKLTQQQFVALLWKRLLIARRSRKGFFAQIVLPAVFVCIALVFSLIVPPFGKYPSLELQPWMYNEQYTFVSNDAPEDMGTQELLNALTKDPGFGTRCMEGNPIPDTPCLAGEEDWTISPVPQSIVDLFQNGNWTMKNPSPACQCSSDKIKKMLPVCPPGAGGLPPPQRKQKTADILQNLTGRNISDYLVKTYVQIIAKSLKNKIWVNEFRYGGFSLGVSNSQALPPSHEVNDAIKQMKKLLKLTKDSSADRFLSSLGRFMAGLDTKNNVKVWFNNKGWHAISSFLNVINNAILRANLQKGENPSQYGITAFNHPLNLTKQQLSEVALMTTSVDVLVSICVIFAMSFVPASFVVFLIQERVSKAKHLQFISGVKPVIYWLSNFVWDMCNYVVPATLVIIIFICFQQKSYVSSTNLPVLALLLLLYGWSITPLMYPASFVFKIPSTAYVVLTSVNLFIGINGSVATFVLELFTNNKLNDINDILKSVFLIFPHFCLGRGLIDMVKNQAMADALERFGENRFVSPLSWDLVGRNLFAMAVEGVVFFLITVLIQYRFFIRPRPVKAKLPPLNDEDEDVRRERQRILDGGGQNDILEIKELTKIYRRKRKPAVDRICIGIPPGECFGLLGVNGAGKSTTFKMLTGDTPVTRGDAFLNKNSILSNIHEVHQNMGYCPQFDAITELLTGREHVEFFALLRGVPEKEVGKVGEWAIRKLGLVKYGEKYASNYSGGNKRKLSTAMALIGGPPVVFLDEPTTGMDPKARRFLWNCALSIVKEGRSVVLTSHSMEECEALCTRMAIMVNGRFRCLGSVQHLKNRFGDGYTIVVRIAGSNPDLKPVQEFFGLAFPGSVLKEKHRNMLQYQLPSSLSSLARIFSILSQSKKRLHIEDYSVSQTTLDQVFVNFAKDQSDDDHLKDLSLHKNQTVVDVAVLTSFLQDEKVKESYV

| Structure (SMILES) | radiolabelled cholesterol efflux to apoA-I from murine peritoneal macrophages (ABCA1) | Hoechst 33342 accumulation assay in H460 cells [1] |
| --- | --- | --- |
| CC(C)(Sc1cc(C(C)(C)C)c(O)c(C(C)(C)C)c1)Sc1cc(C(C)(C)C)c(O)c(C(C)(C)C)c1 [probucol] | probucol, the lead compound, significantly inhibited in a dose-dependent manner the ABCA1 activity |  |
| COc1ccc2c3c([nH]c2c1)[C@H](C=C(C)C)N1C(=O)[C@@H]2CCCN2C(=O)[C@@H]1C3 [fumetrimorgin C] |  | the reference compound fumetrimorgin C, as expected, significantly inhibited the amount of Hoechst 33342-caused intracellular fluorescence |
